Series [1] has as its system plasma insulin. As to the kind of experiment: Arginine-induced insulin release in intact rats. Format: in vivo, rat (male Sprague-Dawley). The note with it: arginine 100 mg/100 g i.v.; 5 min. How it is done:
(§1) After light deithyl ether anaesthetization, the animals were injected with a bolus of saline or alrestatin (sodium salt form in 0.3 ml saline/100 g of body weight) in the external jugular vein followed immediately with a bolus of arginine-HCl (British Drug House ) at a dose of 100 mg/100 g of body weight, cf. […] Vehicle control animals received a second injection of saline. Five minutes later trunk blood was collected by decapitation into chilled tubes containing sodium heparin (Upjohn) and aprotinin(Trasylol™, Boehringer-Ingelheim Dorval, Quebec, Canada) (20 U and 1000 KIU per ml whole blood, respectively). Plasma was collected after centrifugation, stored at -20° C. and assayed for immunoreactive glucagon and insulin levels within 2 weeks.
(§2) Rat insulin purchased from Novo A/S, Copenhagen, Denmark, was used as unlabelled standard. […] Glucagon antiserum (Antiserum 30K, purchased from Dr. R. H. Unger, Houston, Tex., U.S.A.) was employed in the assay. […] Metab. […] Metab. […] Antibody bound hormone was separated from free hormone by conventional charcoal-dextran methods.

For a further series, the system named is plasma glucagon. In words: Arginine-induced glucagon release in intact rats. Format: in vivo, rat (male Sprague-Dawley). The note with it: arginine 100 mg/100 g i.v., 5 min. On the procedure:
as §1, §2

The subject of the next series is plasma glucose. As to the kind of experiment: Acute administration without glucose bolus in fasted rats: plasma glucose. Format: in vivo, rat (male Sprague Dawley). The note with it: acute i.v. administration. On the procedure: (§3) Male Sprague Dawley rats (200-250 g, Canadian Breeding Laboratories, St. Constant, Quebec, Canada) were used in the experiment. There were 11 animals in the group. The animals were kept in a room with constant light-dark cycle and temperature. They were allowed food (Purina Lab Chow™) and water ad libitum for at least three days before being utilized. The animals were then fasted for 24 hours and anaesthetized with nembutal (50 mg/kg, intraperitoneally; Abbott Laboratories, Montreal, Quebec, Canada.) The jugular veins were exposed and a fasting blood sample was drawn by the transmusculature puncture method, Y. Kato, J. Dupre and J. C. Beck, Endocrinology, 93, 135 (1973), employing a sodium heparin (The Upjohn Company, Don Mills, Ontario, Canada) washed syringe. […]
(§4) Plasma insulin was measured by radioimmunoassay using a charcoal separation method, V. Herbert et al, J. Clin. Endocrinol., 25, 1375 (1965). […] Plasma glucose was measured by a glucose oxidase method employing a Beckman Glucose Analyser, see Beckman Company Manual, Palo Alto, Calif., U.S.A.
(§5) The results, noted below, are expressed as mean± S.E.M. The statistical significance of changes in the concentration of plasma glucose (mg/100 ml) and insulin (μU/ml), in response to alrestatin or the vehicle, from basal fasting values was determined on the differences between group means by the Student's […]. […]

A further series is described as follows: LD50 in rats. The note with it: rat, in vivo. From the text: Therefore, a good therapeutic index of safety is present.
The next series deals with aldose reductase. The note with it: previously reported; cited from earlier work.
For series [2], the system named is plasma insulin. In words: Acute administration without glucose bolus in fasted rats: plasma insulin. It counts as in vivo, rat (male Sprague Dawley). Conditions: acute i.v. administration. On the procedure:
as §3, §4, §5

With `N=C(N)NCCC[C@H](N)C(=O)O` [arginine, reference compound], the “increase of plasma insulin concentration” value in the series with plasma insulin [1] was “about 100 μU/ml”. Besides, the “stimulated glucagon release, mean above plasma hormone concentration in vehicle treated animals” value in the series on plasma glucagon is on record as “about 100 pg/ml”. In the series on plasma glucagon (vehicles 180.6±5.8 pg/ml), this compound gave a plasma glucagon concentration of 284.8 ± 13.7 pg/mL.

As to `O=C(O)CN1C(=O)c2cccc3cccc(c23)C1=O` [alrestatin, 1,3-dioxo-1H-benz[de]isoquinoline-2(3H)-acetic acid], in the series on plasma glucose, the “change in plasma glucose levels vs vehicle” value is recorded as “did not significantly alter”. Also, the LD50 (as a rule, the dose at which mortality reaches 50%) is 1220 ± 45 mg/kg in “LD50 in rats” (iv, intravenously) and above 2500 mg/kg in “LD50 in rats” (po, perorally). The “inhibition of the enzyme aldose reductase” value with aldose reductase was “inhibitor of the enzyme aldose reductase”. Also, in the series on plasma insulin [2], the “change in basal fasting plasma insulin levels vs vehicle” value is “did not significantly alter”.

Values taken from patent US4405625A, “Method of treating hyperglycemia with 1,3-dioxo-1H-benz[de]isoquinoline-2(3H)-acetic acid” (Ayerst, McKenna and Harrison Limited, priority 1979, dated 1983).
